{"source": "patent US20210023223A1", "about": "“HYDROCARBON / LIPID - CAROTENOID COMPLEXES” (IP SCIENCE LIMITED, priority 2018, published 2021)", "key": {"[1]": {"experiment": "Size of lipid droplets of dairy butter, microscopy", "type": "physicochemical", "text": "(§1) For measurement of lipid droplets and fat globules and quantification of their size binocular microscope Olympus BX41 was used with Cell^B software for morphometric analysis. All parameters were collected from 10 randomly selected microscopic fields at ×1000).\nIncorporation of lycopene into the butter led to a significant increase in the size of its lipid droplets and many reached more than 100 or even 300 fold of their diameter. This effect was dose-dependent, and can already be observed for less than 1 molecule of lycopene to 224,000 molecules of butter triglycerides."}, "[2]": {"test_system": "healthy volunteers, facial skin", "experiment": "Astaxanthin trial, residual skin surface components (RSSC)", "type": "in vivo, human", "settings": "4 mg daily, 4 weeks", "experimental": "Group I—31 (17 male and 14 female subjects, 40-80 years of age) for astaxanthin intervention;\nGroup I—participants received 4 mg daily doses of formulated astaxanthin,\nDaily dose of each carotenoid product was taken in one capsule with the main evening meal for 4 weeks (from day 1 to day 28 of the study).\nFor RSSC sample collection all participants of the study were requested to avoid facial hygienic manipulations for 24 hours before material collection, which was carried out in the morning. These samples were collected only before initiation of astaxanthin supplementation (day 0) and at the end of the study (day 29). RSSC sample collection and preparation was performed according to previously described procedures. Briefly, RSSC samples were collected using polyester swabs from the surface of the facial skin (the sides of the nose). During the procedure two samples were taken (one swab per side). Each collected sample was placed on the surface of a microscope slide. A second microscope slide was pressed against the surface of the first one. […] All slides with collected samples (i.e. four slides per study participant per time point) were coded to provide sample anonymity for blinded analysis. All collected samples were sent to the laboratory of Lycotec Ltd for further processing and eventual microscopic examination.\nFor morphological analysis of RSSC samples one slide of the first pair was stained with hematoxylin and eosin in order to identify any cells or cell remnants. The second slide was stained using Oil Red O (Lipid Stain, ab150678, Abcam, Cambridge, UK) for lipid visualization and lipid droplet size evaluation. One slide from the other pair was stained with crystal violet solution (Gram staining) to assess the level of microorganism presence. The remaining slides were kept unstained for possible future use.\nAll stained smears were examined microscopically by a highly experienced cytopathologist. Microscopy was performed using Olympus BX41 laboratory microscope (Olympus, Japan) at ×1000 magnification.\nThe analysis included examining 40 fields of view within one smear. Dark field microscopy was applied for lipid crystal visualization. […]\nThe analysis of typical structural elements of the RSSC comprised lipid droplet measurements, counting characteristic lipid crystals and desquamated corneocytes, and evaluation of bacterial presence as previously described. The indicated micro objects/structures were quantified using Cell^B imaging software (Digital Imaging Solutions, Olympus, Japan). […]\nIn the morphological analysis of the RSSC quantitatively assessed parameters comprised lipid droplet size, numbers of desquamated corneocytes and lipid crystals and bacterial presence estimates (using Bacterial Presence Assessment Scale as described in our previous paper)."}, "Melting time at 37° C. [3]": {"experiment": "Melting time at 37° C.", "type": "physicochemical", "settings": "0.3 mg per 1 g of butter", "experimental": "(§2) Approximately 20 mg of butter, or pork fat, or beef fat, or cocoa butter, or chocolate, with or without certain concentrations of carotenoids, were placed on the surface of the laboratory slides and incubated at 37° C. in a laboratory incubator (TLK39)."}, "[4]": {"experiment": "Defrosting time of frozen oil", "type": "physicochemical", "experimental": "To determined defrosting time, frozen oil aliquots of 200 μI were incubated at ambient temperature of 20±2 C° until they were completely melted. Period of time, which was required for the tested sample to be melted, was measured with a laboratory timer (QUANTUM)."}, "[5]": {"experiment": "Size of pork fat globules, microscopy", "type": "physicochemical", "experimental": "as §1\nWhen carotenoids were added to animal fat, with a relatively high percentage of saturated fatty acid, a similar trend in increased fat globules was observed, although to a lesser degree. The maximum doses of lycopene or astaxanthin caused a similar increase in the pork fat globules diameter, only 50%, FIG. 2 and table 3."}, "[6]": {"experiment": "Oil volume needed to cover water surface", "type": "physicochemical", "settings": "100 ml water sample; unmodified oil 21.5 ml", "text": "The other way to assess changes in oil viscosity, caused by carotenoids, would be to measure how much oil would be needed to cover a water surface of the same size. The lower viscosity of the oil the more spreadable it will be, and consequently less of it would be needed to cover this surface. Therefore, by measuring how much oil would be required to cover a certain surface of water we can asses how deep changes in the lipid folding were made by incorporating carotenoids.\nAn additional nine heating experiments were carried out when either pure Napolina olive oil, Napolina olive oil containing Astaxanthin (7 mg/ml), or Napolina olive oil containing Lycopene (7 mg/ml) was carefully poured over the surface of the water in order to prevent evaporation. The amount of oil required to completely cover the surface of the 100 ml water sample in the cup (diameter—7.4 cm) was measured (15 ml Falcon laboratory tubes and 1 ml Pipetman pitettes were used) and recorded for each oil type. The thickness of the resulting oil film (necessary to completely cover water surface) was then calculated. Temperature change curves were compared for uncovered water and water samples overlayed with three varieties of oil at heating temperatures of 200° C., 250° C. and 300° C. Water samples overlaid with oils were heated until water reached boiling point (usually at 99° C.). […]"}, "[7]": {"experiment": "Spreadability of fat drops on hard surface (viscosity)", "type": "physicochemical", "experimental": "The described above enlargement of lipid droplets or fat globules, caused by carotenoids, translated into reduction of the viscosity of their product. This could be visually observed without any instrumentation—the larger surface area is covered by spreading a drop of oil or molten fat to lower the viscosity of this food mass.\nWhen astaxanthin was added to the dairy butter reduction its viscosity could be visually observed After measuring and comparing the size of the spread drops this decrease was estimated to be about 3, (FIG. 5)."}, "[8]": {"experiment": "Heating olive oil-in-water emulsions", "type": "physicochemical"}, "[9]": {"experiment": "Size of beef fat globules, microscopy", "type": "physicochemical", "text": "as §1, with “×1000). In case of beef fat, lycopene incorporation led to a smaller increase of its fat globules, only by 30%, FIG. 3.” for “×1000).”"}, "Melting time at 37° C. [10]": {"experiment": "Melting time at 37° C.", "type": "physicochemical", "settings": "1 mg per 1 g of the chocolate; control 19 minutes", "experimental": "as §2\nResults presented in FIG. 15 show three different carotenoids—lycopene, lutein and astaxanthin, can reduce, albeit to a different degree, the melting time of dark chocolate regardless of its tempering protocols: Protocol I—28° C., Protocol II—29° C., Protocol III—30° C."}}}
{"smiles": "CC1=C(/C=C/C(C)=C/C=C/C(C)=C/C=C/C=C(C)/C=C/C=C(C)/C=C/C2=C(C)C(=O)[C@@H](O)CC2(C)C)C(C)(C)C[C@H](O)C1=O", "note": "[Astaxanthin, astaxanthin]", "values": [{"measurement": "Size of butter lipid droplets, Mean", "setting": "[1]; astaxanthin dose 0.1 per 30 g of butter", "value": 7.44, "unit": "µm"}, {"measurement": "Size of butter lipid droplets, Mean", "setting": "[1]; astaxanthin dose 0.5 per 30 g of butter", "value": 9.23, "unit": "µm"}, {"measurement": "Size of butter lipid droplets, Mean", "setting": "[1]; astaxanthin dose 1.0 per 30 g of butter", "value": 12.4, "unit": "µm"}, {"measurement": "Size of butter lipid droplets, Mean", "setting": "[1]; astaxanthin dose 2.0 per 30 g of butter", "value": 14.7, "unit": "µm"}, {"measurement": "Size of butter lipid droplets, Mean", "setting": "[1]; astaxanthin dose 3.5 per 30 g of butter", "value": 12.2, "unit": "µm"}, {"measurement": "Size of butter lipid droplets, Mean", "setting": "[1]; astaxanthin dose 7.0 per 30 g of butter", "value": 25, "unit": "µm"}, {"measurement": "Size of butter lipid droplets, Mean", "setting": "[1]; astaxanthin dose 10.0 per 30 g of butter", "value": 34.1, "unit": "µm"}, {"measurement": "Corneocyte desquamation levels at the end of the study", "setting": "[2]; P=0.0075", "value": "clearly reduced in most volunteers"}, {"measurement": "Lipid droplet size, day 29 vs day 0", "setting": "[2]; subgroup of obese subjects", "value": "statistically significant (P=0.0214) increase"}, {"measurement": "Lipid droplet size, day 29 vs day 0", "setting": "[2]; whole group, P=0.0683", "value": "has not reached statistical significance"}, {"measurement": "Microbial presence in RSSC samples", "setting": "[2]; whole volunteer group", "value": "statistically significant (P=0.0367) decrease"}, {"measurement": "Reduction of melting time of dairy butter", "setting": "Melting time at 37° C. [3]", "value": "more than 3.5 fold"}, {"measurement": "Melting time of dairy butter", "setting": "Melting time at 37° C. [3]; control 140 seconds", "value": 38, "unit": "s"}, {"measurement": "Reduction of thawing time of Olive oil", "setting": "[4]; 0.3 mg per 1 ml of the oil", "value": 11, "unit": "fold"}, {"measurement": "Thawing time of frozen Olive oil", "setting": "[4]; 0.3 mg per 1 ml of the oil, controls 60 (lycopene) and 48 seconds (astaxanthin)", "value": 4.3, "unit": "s"}, {"measurement": "Reduction of thawing time of Sunflower oil", "setting": "[4]; 0.3 mg per 1 ml the oil", "value": "above 3 fold"}, {"measurement": "Size of pork fat globules, Mean", "setting": "[5]; astaxanthin dose 0.1 per 30 g of pork fat", "value": 5.687, "unit": "μm"}, {"measurement": "Size of pork fat globules, Mean", "setting": "[5]; astaxanthin dose 0.5 per 30 g of pork fat", "value": 4.937, "unit": "μm"}, {"measurement": "Size of pork fat globules, Mean", "setting": "[5]; astaxanthin dose 1.0 per 30 g of pork fat", "value": 5.333, "unit": "μm"}, {"measurement": "Size of pork fat globules, Mean", "setting": "[5]; astaxanthin dose 2.0 per 30 g of pork fat", "value": 6.812, "unit": "μm"}, {"measurement": "Size of pork fat globules, Mean", "setting": "[5]; astaxanthin dose 3.5 per 30 g of pork fat", "value": 8.307, "unit": "μm"}, {"measurement": "Size of pork fat globules, Mean", "setting": "[5]; astaxanthin dose 7.0 per 30 g of pork fat", "value": 7.9, "unit": "μm"}, {"measurement": "Size of pork fat globules, Mean", "setting": "[5]; astaxanthin dose 10.0 per 30 g of pork fat", "value": 8.692, "unit": "μm"}, {"measurement": "Increase in the pork fat globules diameter", "setting": "[5]; maximum doses", "value": 50, "unit": "%"}, {"measurement": "Oil volume needed to cover the surface of the water", "setting": "[6]", "value": 15, "unit": "mL"}, {"measurement": "Decrease of dairy butter viscosity from size of the spread drops", "setting": "[7]", "value": "about 3"}, {"measurement": "Rate of heating of olive oil emulsion in water in the first 3 minutes", "setting": "[8]; 50%:50%, 1 molecule lycopene to 67,000 or astaxanthin to 71,000 fatty acids, control 10° C.", "value": 23, "unit": "°C"}, {"measurement": "Maximum temperature the emulsion could reach", "setting": "[8]; water to olive oil 75%:25%, control 62° C.", "value": 90, "unit": "°C"}, {"measurement": "Increase of beef fat globules diameter", "setting": "[9]", "value": 2.5, "unit": "folds"}, {"measurement": "Melting time of dark chocolate", "setting": "Melting time at 37° C. [10]", "value": 5, "unit": "min"}]}
